Source: paper PMC11191602, “A novel and selective fluorescent ligand for the study of adenosine A2B receptors” (Pharmacology Research & Perspectives, 2024)
Read-outs that look alike come from different tables or passages of the source.

Assays:
NLuc‐A2BR = target: T1, NLuc‐A2BR (Homo sapiens, UniProt P29275); experiment: NanoBRET ligand‐binding kinetics of 200 nM PSB603‐BY630 in HEK293G cells expressing NLuc‐A2BR
T1 construct: expressed in transfected cells
T1 sequence (P29275 1-332): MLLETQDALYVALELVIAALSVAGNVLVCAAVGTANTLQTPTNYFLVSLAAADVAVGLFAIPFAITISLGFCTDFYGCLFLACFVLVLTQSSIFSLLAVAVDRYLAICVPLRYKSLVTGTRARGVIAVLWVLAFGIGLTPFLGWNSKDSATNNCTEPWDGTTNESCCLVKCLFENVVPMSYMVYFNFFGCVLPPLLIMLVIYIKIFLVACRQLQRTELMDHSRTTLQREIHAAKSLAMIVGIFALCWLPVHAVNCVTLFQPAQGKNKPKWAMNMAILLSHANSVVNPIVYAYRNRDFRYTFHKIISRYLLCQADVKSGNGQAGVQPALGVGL
Experimental: Saturation and competition binding assays were performed as previously described.[36] Briefly, cells were seeded in 96‐well white clear‐bottomed Greiner plates pre‐treated with 10 μg/mL poly‐D‐lysine (Sigma‐Aldrich, Missouri USA) at a density of 30 000–35 000 cells per well in DMEM supplemented with 10% FBS. The following day medium was removed and cells were incubated with PSB603‐BY630 in the presence or absence of 1 μM MRS1706 (saturation binding assays) or competing ligand in the presence of 50 nM PSB603‐BY630 (competition binding assays) in HEPES buffered saline solution (HBSS; 145 mM NaCl, 5 mM KCl, 1.3 mM CaCl2, 1 mM MgSO4, 10 mM HEPES, 2 mM sodium pyruvate, 1.5 mM NaHCO3, 10 mM D‐glucose, pH 7.45) with 0.1% bovine serum albumin for 1 h at 37°C. The NanoLuc substrate, furimazine (Promega Corporation, Wisconsin, USA), was then added to each well (1:400 dilution) and the plate was incubated for 10 min in the dark at 37°C. The resulting bioluminescence resonance energy transfer (BRET) was measured using a PHERAstar FS plate reader (BMG Labtech) at 37°C. For each well, filtered light emissions at 460 nm (80 nm bandpass) and >610 nm (longpass) for the BODIPY630/650 ligand were simultaneously measured. BRET ratios were calculated by dividing the 610 nm emission by the 460 nm emission. All conditions were performed in 2–6 replicates within each plate. For kinetic experiments, cells were preincubated for 10 min with 1:400 dilution of furimazine prior to addition of 200 nM PSB603‐BY630 and BRET ratios determined every 0.5 min. At 60 min, 10 μM MRS‐1706 was added and the ligand‐binding kinetics followed for a further 60 min.
For kinetic binding experiments, the BRET ratio obtained in the absence of fluorescent ligand was determined for each time point and subtracted from the total binding to obtain baseline‐corrected values for total binding at each time point. 60 min after addition of 200 nM PSB603‐BY630, 10 μM MRS‐1706 was added and the dissociation data fitted to the following equation to obtain values for the dissociation rate constant (k off) in min^−1: Y=Yo−NS.e^−koff.t+NS where [Yo] is the binding at time 60 min (when 10 μM MRS‐1706 was added), NS is the non‐specific binding at infinite time, k off is dissociation rate constant. The residence time in min was then calculated as the reciprocal of k off.

human NLuc‐A2AR = target: T2, human NLuc‐A2AR (Homo sapiens, UniProt P29274); experiment: NanoBRET saturation binding in HEK293G cells transiently transfected with NLuc‐A2AR; details: non‐specific defined with 1 μM SCH58261; PSB603‐BY630 at concentrations up to 500 nM
T2 construct: expressed in transfected cells; host or cells: HEK293G, transient transfection with pcDNA3.1 NLuc-A2AR (FuGENE HD)
T2 sequence (P29274 whole entry): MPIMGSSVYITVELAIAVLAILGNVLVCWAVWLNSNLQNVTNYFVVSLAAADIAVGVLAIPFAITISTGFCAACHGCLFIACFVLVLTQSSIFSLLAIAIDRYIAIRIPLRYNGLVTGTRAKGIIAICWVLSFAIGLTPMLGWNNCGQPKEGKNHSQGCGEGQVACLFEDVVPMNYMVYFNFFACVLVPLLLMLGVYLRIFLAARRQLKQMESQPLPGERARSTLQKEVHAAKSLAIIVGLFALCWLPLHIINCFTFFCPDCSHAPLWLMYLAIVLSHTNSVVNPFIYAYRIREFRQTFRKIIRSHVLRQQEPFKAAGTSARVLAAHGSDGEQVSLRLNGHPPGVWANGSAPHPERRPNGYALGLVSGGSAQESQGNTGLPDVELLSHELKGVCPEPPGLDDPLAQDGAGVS
Experimental: The human A2A receptor cDNA was obtained from Missouri S&T cDNA Resource Centre (www.cdna.org) in a pcDNA3.1 expression vector. An N‐terminal nanoluciferase (NLuc)‐labeled human A2AR receptor constructs (NLuc‐A2AR) was then generated in frame with the full length NLuc incorporating a rat 5‐HT3A membrane localisation signal sequence in pcDNA3.1 as described previously.[37] For transient transfections, HEK293G cells were seeded at 20000 cells/well into white walled, clear bottomed 96‐wells plates (Greiner Bio‐One, Stonehouse, UK), coated with 10 μg/mL poly‐D‐lysine, in 100 μL medium/well and incubated at 37°C and 5% CO2 for 18–24 h. […]
Saturation and competition binding assays were performed as previously described.[36] […] The resulting bioluminescence resonance energy transfer (BRET) was measured using a PHERAstar FS plate reader (BMG Labtech) at 37°C. For each well, filtered light emissions at 460 nm (80 nm bandpass) and >610 nm (longpass) for the BODIPY630/650 ligand were simultaneously measured. BRET ratios were calculated by dividing the 610 nm emission by the 460 nm emission. […] For kinetic experiments, cells were preincubated for 10 min with 1:400 dilution of furimazine prior to addition of 200 nM PSB603‐BY630 and BRET ratios determined every 0.5 min. […]

SMILES: CCCn1c(=O)[nH]c2[nH]c(-c3ccc(S(=O)(=O)N4CCN(c5ccc(OCCNC(=O)CCCCCNC(=O)COc6ccc(/C=C/C7=[N+]8C(=Cc9ccc(-c%10cccs%10)n9[B-]8(F)F)C=C7)cc6)cc5)CC4)cc3)nc2c1=O [PSB603‐BY630]
- koff (NLuc‐A2BR; 200 nM PSB603‐BY630, 10 μM MRS‐1706 at 60 min, single representative experiment (Figure 5), read-out: K off in representative experiment (converted)): 0.000933 s⁻¹
- time to reach binding equilibrium (NLuc‐A2BR; 200 nM PSB603‐BY630, 37°C): ≤ 60 min
- koff (NLuc‐A2BR; 200 nM PSB603‐BY630, dissociation initiated with 10 μM MRS‐1706 at 60 min, 37°C, 5 experiments, read-out: dissociation rate constant k off (mean) (converted)): 0.00108 s⁻¹
- residence time (NLuc‐A2BR; reciprocal of k off, 37°C): 15.4 min
- specific binding to NLuc‐A2AR (human NLuc‐A2AR): negligible
